Source: US20080090805A1, “CB-1 MODULATING COMPOUNDS AND THEIR USE” (ACADIA PHARMACEUTICALS INC., priority 2005, published 2008)
Where two headings read alike, the source gives them in different places.

Target: native CB1 receptors (Rattus norvegicus, UniProt P20272)
Assay: CB1 receptor rat binding assay ([3H]SR141716A, rat brain membranes)
Settings: rat brain membranes
[1] = [3H]SR141716A, read-out: Binding rat pKi (converted)

Chain of native CB1 receptors (P20272 whole entry): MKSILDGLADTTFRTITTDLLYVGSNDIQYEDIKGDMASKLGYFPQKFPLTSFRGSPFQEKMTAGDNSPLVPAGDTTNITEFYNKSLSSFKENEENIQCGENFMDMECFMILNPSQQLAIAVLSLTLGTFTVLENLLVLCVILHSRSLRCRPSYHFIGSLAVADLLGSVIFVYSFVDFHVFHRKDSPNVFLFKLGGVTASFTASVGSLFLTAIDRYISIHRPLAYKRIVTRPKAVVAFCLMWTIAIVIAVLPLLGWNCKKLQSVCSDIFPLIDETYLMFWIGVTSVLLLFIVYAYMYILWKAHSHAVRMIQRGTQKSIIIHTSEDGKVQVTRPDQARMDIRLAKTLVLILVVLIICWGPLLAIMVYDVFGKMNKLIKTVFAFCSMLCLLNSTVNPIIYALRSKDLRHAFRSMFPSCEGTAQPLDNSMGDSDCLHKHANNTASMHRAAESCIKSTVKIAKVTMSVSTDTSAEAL

Row | SMILES | Binding rat Inh % ([3H]SR141716A) | Ki [1] | Ki (3 nM [3H]SR141716A, read-out: Rat Brain pKi (converted))
1 | O=C(NCCc1cccnc1)c1ccc2c(c1)N=C(c1ccc(Cl)s1)c1ccccc1S2 [drawing 1466] | 98% | 7.94 nM | –
2 | CC(C)CNC(=O)c1ccc2c(c1)N=C(c1ccc(Cl)cn1)c1ccc(F)cc1S2 [drawing 1229] | 87% | 15.8 nM | –
3 | Cc1ccc(CNC(=O)c2ccc3c(c2)N=C(c2cccc(F)c2)c2ccccc2S3)o1 [drawing 1481] | 88% | 10 nM | –
4 | Cc1ccc(CNC(=O)c2ccc3c(c2)N=C(c2ccc(Cl)cc2F)c2ccccc2S3)o1 [drawing 1441] | 90% | 7.94 nM | –
5 | CC(CNC(=O)c1ccc2c(c1)N=C(c1ccc(F)cc1)c1ccccc1S2)c1ccccc1 (stereo not shown) [drawing 1362] | – | 3.98 nM | –
6 | Cc1cccc(C2=Nc3cc(C(=O)NCc4ccc(C)o4)ccc3Sc3ccccc32)n1 [drawing 1353] | 108% | 3.98 nM | –
7 | Cc1ccsc1C1=Nc2cc(C(=O)NCc3ccco3)ccc2Sc2ccccc21 [drawing 1277] | 85% | 20 nM | –
8 | CC(NC(=O)c1ccc2c(c1)N=C(c1cccc(Cl)c1)c1ccccc1S2)c1ccccc1 (stereo not shown) [drawing 1465] | – | 7.94 nM | –
9 | O=C(NCc1cccc(Cl)c1)c1ccc2c(c1)N=C(c1cccc(Cl)c1)c1ccccc1S2 [drawing 1264] | – | 1.58 nM | –
10 | CCCNC(=O)c1ccc2c(c1)N=C(c1sccc1C)c1ccccc1S2 [drawing 1387] | 64% | 31.6 nM | –
11 | O=C(NN1CCCCC1)c1ccc2c(c1)N=C(c1ccc(Cl)c(F)c1)c1ccccc1S2 [drawing 1394] | 87% | 5.01 nM | –
12 | CCCCNC(=O)c1ccc2c(c1)N=C(c1ccc(Cl)cc1Cl)c1ccccc1S2 [drawing 1406] | 98% | 39.8 nM | –
13 | C[C@@H]1CCC[C@H](C)N1NC(=O)c1ccc2c(c1)N=C(c1ccc(Cl)cc1)c1ccccc1S2 [drawing 1396] | 94% | 39.8 nM | –
14 | CCCNC(=O)c1ccc2c(c1)N=C(c1ccc(Cl)s1)c1ccccc1S2 [drawing 1236] | 89% | 15.8 nM | –
15 | CCCCNC(=O)c1ccc2c(c1)N=C(c1cccc(Cl)c1)c1ccccc1S2 [drawing 1479] | – | 7.94 nM | –
16 | O=C(NNCC(F)(F)F)c1ccc2c(c1)N=C(c1cccc(Cl)c1)c1ccccc1S2 [drawing 1467] | 97% | 50.1 nM | –
17 | O=C(NCc1cccc(Cl)c1)c1ccc2c(c1)N=C(c1ccc(Cl)cc1)c1cc(F)ccc1S2 [drawing 1456] | – | 7.94 nM | –
18 | Cc1cccc(C2=Nc3cc(C(=O)NCCC(F)(F)F)ccc3Sc3ccccc32)n1 [drawing 1308] | 91% | 20 nM | –
19 | CC(C)NC(=O)c1ccc2c(c1)N=C(c1ccc(Cl)s1)c1ccccc1S2 [drawing 1445] | 85% | 50.1 nM | –
20 | CC(CNC(=O)c1ccc2c(c1)N=C(c1ccc(Cl)cc1)c1ccccc1S2)c1ccccc1 (stereo not shown) [drawing 1288] | – | 2 nM | –
21 | O=C(NCc1ccccc1)c1ccc2c(c1)N=C(C1CCCCC1)c1ccccc1S2 [drawing 1343] | – | 3.98 nM | –
22 | CC(C)NC(=O)c1ccc2c(c1)N=C(c1cccc(Cl)c1)c1ccccc1S2 [drawing 1269] | 83% | 20 nM | –
23 | Cc1csc(CNC(=O)c2ccc3c(c2)N=C(c2ccc(F)cc2)c2ccccc2S3)c1 [drawing 1430] | 81% | 50.1 nM | –

Row | SMILES | Binding rat Inh % ([3H]SR141716A) | Ki [1] | Ki (3 nM [3H]SR141716A, read-out: Rat Brain pKi (converted))
24 | O=C(NN1CCCCC1)c1ccc2c(c1)N=C(c1cccc(F)c1)c1ccccc1S2 [drawing 1374] | 94% | 31.6 nM | –
25 | O=C(NCCc1ccccn1)c1ccc2c(c1)N=C(c1ccc(F)cc1)c1ccccc1S2 [drawing 1411] | 85% | 39.8 nM | –
26 | O=C(NCc1ccccn1)c1ccc2c(c1)N=C(c1cccc(Br)c1)c1ccccc1S2 [drawing 1419] | 79% | 39.8 nM | –
27 | O=C(NCc1cccs1)c1ccc2c(c1)N=C(c1cccc(Cl)c1)c1ccccc1S2 [drawing 1272] | 109% | 2 nM | –
28 | O=C(NN1CCCCC1)c1ccc2c(c1)N=C(c1ccc(Cl)cn1)c1ccccc1S2 [drawing 1373] | 95% | 31.6 nM | –
29 | Cc1ccc(N2CCN(C(=O)c3ccc4c(c3)N=C(Cl)c3ccccc3S4)CC2)c(C)c1 [Example 12] | – | – | 251 nM
30 | CCN(CCNC(=O)c1ccc2c(c1)N=C(N1CCCCC1)c1ccccc1S2)c1ccccc1 [drawing 1439] | – | 6.31 nM | –
31 | O=C(NCc1cccc(Cl)c1)c1ccc2c(c1)N=C(C1CCCCC1)c1ccccc1S2 [drawing 1338] | – | 3.98 nM | –
32 | O=C(NCc1ccc(Cl)cc1Cl)c1ccc2c(c1)N=C(c1ccccc1)c1ccccc1S2 [drawing 1204] | – | 12.6 nM | –
33 | O=C(NC1CCCC1)c1ccc2c(c1)N=C(c1ccc(Cl)c(Cl)c1)c1ccccc1S2 [drawing 1399] | 78% | 5.01 nM | –
34 | CCOC(=O)c1ccc(C2=Nc3cc(C(=O)NCc4cccnc4)ccc3Sc3ccccc32)cc1 [drawing 1350] | 90% | 31.6 nM | –
35 | CC(CNC(=O)c1ccc2c(c1)N=C(c1ccccc1F)c1ccccc1S2)c1ccccc1 (stereo not shown) [drawing 1214] | – | 15.8 nM | –
36 | CC(C)NC(=O)c1ccc2c(c1)N=C(c1cccc(F)c1)c1ccccc1S2 [drawing 1528] | 77% | 79.4 nM | –
37 | O=C(NCc1ccc(Cl)cc1Cl)c1ccc2c(c1)N=C(c1ccccc1F)c1ccccc1S2 [drawing 1551] | – | 100 nM | –
38 | Cc1ccc(CNC(=O)c2ccc3c(c2)N=C(c2ccc(Cl)cc2)c2ccccc2S3)o1 [drawing 1416] | 88% | 6.31 nM | –
39 | O=C(NN1CCCCC1)c1ccc2c(c1)N=C(c1ccc(Br)cc1)c1ccccc1S2 [drawing 1423] | 89% | 6.31 nM | –
40 | O=C(NCc1ccccc1)c1ccc2c(c1)N=C(N1CCCCC1)c1ccccc1S2 [drawing 1253] | – | 15.8 nM | –
41 | Clc1ccc(C2=Nc3cc(-c4ncc[nH]4)ccc3Sc3ccccc32)cc1 [drawing 1485] | 81% | 63.1 nM | –
42 | O=C(NCCc1cccnc1)c1ccc2c(c1)N=C(c1ccc(Cl)c(Cl)c1)c1ccccc1S2 [drawing 1407] | 103% | 6.31 nM | –
43 | O=C(NC1CCC(F)(F)CC1)c1ccc2c(c1)N=C(c1ccc(F)cc1)c1ccccc1S2 [drawing 1258] | 94% | 1.26 nM | –
44 | CCCC1=Nc2cc(C(=O)NC(C)C34C[C@H]5C[C@@H](C3)C[C@@H](C4)C5)ccc2Sc2ccccc21 (stereo partly shown) | – | 25.1 nM | –
45 | CCCCNC(=O)c1ccc2c(c1)N=C(c1cccc(Cl)c1)c1cc(Cl)ccc1S2 [drawing 1235] | 89% | 15.8 nM | –
46 | CCCC1=Nc2cc(C(=O)NCCc3ccc(OC)cc3OC)ccc2Sc2ccccc21 [drawing 1536] | – | 79.4 nM | –

Row | SMILES | Binding rat Inh % ([3H]SR141716A) | Ki [1] | Ki (3 nM [3H]SR141716A, read-out: Rat Brain pKi (converted))
47 | CCOC(=O)N1CCC(NC(=O)c2ccc3c(c2)N=C(c2ccc(Cl)cc2)c2ccccc2S3)CC1 [drawing 1548] | – | 12.6 nM | –
48 | CC(C)CNC(=O)c1ccc2c(c1)N=C(c1ccc(Cl)cn1)c1ccc(Cl)cc1S2 [drawing 1506] | 90% | 79.4 nM | –
49 | O=C(NCc1cccs1)c1ccc2c(c1)N=C(c1ccc(Cl)cc1)c1ccccc1S2 [drawing 1279] | 94% | 2 nM | –
50 | O=C(NN1CCCCC1)c1ccc2c(c1)N=C(c1ccc(F)cn1)c1ccccc1S2 [drawing 1494] | 94% | 63.1 nM | –
51 | O=C(NCc1ccccc1Cl)c1ccc2c(c1)N=C(c1ccccc1)c1ccccc1S2 [drawing 1324] | – | 25.1 nM | –
52 | COc1ccc(C2=Nc3cc(C(=O)NCC(C)C)ccc3Sc3ccccc32)cc1 [drawing 1508] | 79% | 10 nM | –
53 | O=C(NCCc1ccccn1)c1ccc2c(c1)N=C(c1ccc(Cl)c(Cl)c1)c1ccccc1S2 [drawing 1452] | 114% | 50.1 nM | –
54 | O=C(NCc1ccc(F)cc1)c1ccc2c(c1)N=C(c1ccc(Cl)cc1)c1ccccc1S2(=O)=O [drawing 1316] | – | 25.1 nM | –
55 | O=C(NC1CCC(F)(F)CC1)c1ccc2c(c1)N=C(c1cccc(F)c1)c1ccccc1S2 [drawing 1249] | 112% | 1 nM | –
56 | O=C(NCCCC(F)(F)F)c1ccc2c(c1)N=C(c1ccsc1)c1ccccc1S2 [drawing 1233] | 97% | 0.794 nM | –
57 | O=C(NCc1ccccc1Br)c1ccc2c(c1)N=C(C1CCCCC1)c1ccccc1S2 [drawing 1392] | – | 5.01 nM | –
58 | O=C(NCCc1ccc(Cl)cc1)c1ccc2c(c1)N=C(N1CCCCC1)c1ccccc1S2 [drawing 1345] | – | 3.98 nM | –
59 | O=C(NCCC(F)(F)F)c1ccc2c(c1)N=C(c1cccc(Cl)c1)c1ccccc1S2 [drawing 1250] | 88% | 1 nM | –
60 | O=C(NCCCc1ccccc1)c1ccc2c(c1)N=C(c1ccc(Cl)cc1)c1ccccc1S2 [drawing 1434] | – | 6.31 nM | –
61 | Cc1cnc(-c2ccc3c(c2)N=C(c2ccc(Cl)cc2)c2ccccc2S3)[nH]1 [drawing 1371] | 84% | 31.6 nM | –
62 | Cc1ccsc1C1=Nc2cc(C(=O)NC(C)C)ccc2Sc2ccccc21 [drawing 1478] | 60% | 63.1 nM | –
63 | O=C(NN1CCCCC1)c1ccc2c(c1)N=C(c1ccc(F)c(Cl)c1)c1ccccc1S2 [drawing 1321] | 100% | 3.16 nM | –
64 | O=C(NCc1cccs1)c1ccc2c(c1)N=C(c1ccc(Cl)s1)c1ccccc1S2 [drawing 1256] | 98% | 1.26 nM | –
65 | O=C(NCCc1cccc(Cl)c1)c1ccc2c(c1)N=C(c1cccc(Cl)c1)c1ccccc1S2 [drawing 1331] | – | 25.1 nM | –
66 | O=C(NCCc1ccccn1)c1ccc2c(c1)N=C(c1ccc(Cl)cc1)c1ccccc1S2 [drawing 1340] | 60% | 25.1 nM | –
67 | CC(C)CCNC(=O)c1ccc2c(c1)N=C(c1ccccn1)c1ccccc1S2 [drawing 1349] | 86% | 31.6 nM | –
68 | O=C(NCc1cccc(Cl)c1)c1ccc2c(c1)N=C(c1ccccc1)c1ccccc1S2 [drawing 1449] | – | 7.94 nM | –
